Measurements published in patent publication US12453709B2, “Compositions and methods for treating autism” (priority 2013, dated 2025).

Tests used:
[1] = system: male patients diagnosed with autism; assay: Study HT 02-121: Repetitive Behavior Scale-Revised (RBS-R); format: in vivo, human; settings: for RBS-R Compulsive Behavior Mean Change from Baseline / RBS-R Compulsive Behavior Treatment effect versus placebo / RBS-R Compulsive Behavior change, median / RBS-R Restricted Behavior Mean Change from Baseline / RBS-R Restricted Behavior Treatment effect versus placebo / RBS-R Restricted Behavior change, median / RBS-R Ritualistic Behavior Mean Change from Baseline / RBS-R Ritualistic Behavior Treatment effect versus placebo / RBS-R Ritualistic Behavior change, median / RBS-R Sameness Behavior Mean Change from Baseline / RBS-R Sameness Behavior Treatment effect versus placebo / RBS-R Sameness Behavior change, median / RBS-R Self Injurious Behavior Mean Change from Baseline / RBS-R Self Injurious Behavior Treatment effect versus placebo / RBS-R Self Injurious Behavior change, median / RBS-R Stereotypic Behavior Mean Change from Baseline / RBS-R Stereotypic Behavior Treatment effect versus placebo / RBS-R Stereotypic Behavior change, median / RBS-R Total Score Mean Change from Baseline / RBS-R Total Score Treatment effect versus placebo / RBS-R Total Score change, median: Week 4/LOCF
Experimental: This clinical study was a randomized double-blind, placebo-controlled two-cohort, 4-week dose-escalation study that incorporated two open-label treatment groups to assess the safety and efficacy of L1-79 100 mg and 200 mg TID in male patients between the ages of […] years of age diagnosed with autism. The first cohort of 20 patients was comprised of three groups of patients: The first group of five patients received open-label L1-79 100 mg TID and underwent PK and EKG assessments. The remaining two groups in this cohort consisted of 15 patients randomized on a 2:1 basis to receive L1-79 100 mg TID or placebo. The PK and safety data from the open-label L1-79 100 mg TID group was submitted to FDA for review and acceptance before the second cohort was enrolled. The second cohort was procedurally identical to the first. The second cohort of 20 patients was comprised of the same three groups of patients but a dose of 200 mg TID was used instead of 100 mg TID. The key inclusion criteria were as follows: (1) males between 13 and 21 years of age, (2) DSM-5 compliant diagnosis of autism spectrum disorder, confirmed by the Autistic Diagnosis Interview Review (ADIR), and by an ADOS-2 score consistent with a diagnosis of autism, (3) must have been stable on no more than one concomitant medication and no planned changes in psychosocial interventions during the study.
The primary efficacy endpoint was the determination of the clinical improvement by the investigator as documented by the Clinical Global Impression (CGI) rating scales. Additional efficacy endpoints included: (1) changes from baseline in the Socialization and Communication Domains of the Vineland Adaptive Behavior Scales, Second Edition (VABS II) parent/caregiver rating form, (2) changes from baseline in the ADOS-2 Total Score and subscores, (3) changes in the Social Responsiveness Scale, Second Edition (SRS-2) Total Score and subscales, (4) changes in the ABC-C domains, (5) changes in the Repetitive Behavior Scale-Revised (RBS-R) Total Score and subscales. Given the exploratory design of this study only descriptive statistics were planned.
In the preliminary study, all forms were completed at the study site in the presence of the investigator. In Cohort 1 of the present study, the VABS-II, SRS-2, ABC-C and RBS-R were filled out at home by the patient/patient's families prior to treatment visits and returned at treatment visits in order to expedite the execution of the study. […]

[2] = system: male patients diagnosed with autism; assay: Study HT 02-121: ECGs and laboratory evaluations; format: in vivo, human
Experimental: The first five patients in each cohort were assigned to receive active medication in an open-label fashion. The patients were treated identically to the randomized patients with the following exceptions: (1) blood samples were drawn at baseline and 1 hour after dosing, and at Week 1, 2, 3 and 4 treatment visits 1 hour after dosing to determine the PK of L1-79, (2) EKGs were assessed at baseline and within 3-days prior to the Week 1, 2, 3 and 4 treatment visits as well as the 1-week and 4-week post-dosing follow-up visits, (3) vital signs, physical exams, and ASD assessments were performed at 1-week postdosing visit, (4) blood and urine samples were drawn at baseline and at Week 1, 2, 3 and 4 treatment visits 1 hour after dosing as well as the 1-week and 4-week post-dosing follow-up visits for safety analyses.
Safety was the primary endpoint of the study. The following safety endpoints were assessed: ECGs, physical exams, laboratory evaluations (hematology, chemistry and urinalysis), vital signs, including orthostatic blood pressure, adverse events (AEs) and concomitant medications.
Of note was the observation that half (50%) of the patients on L1-79 developed crystalluria compared to 30% of placebo treated patients. Of those that developed crystalluria during the study, approximately half (50%) had concentrated urine (specific gravity>1.025). […]

CC(N)(Cc1ccc(O)cc1)C(=O)O (racemic) [L1-79, α-methyl-DL-tyrosine]
RBS-R Compulsive Behavior Mean Change from Baseline ([1]; DB 100 mg TID): −1.2
RBS-R Compulsive Behavior Treatment effect versus placebo ([1]; DB 100 mg TID): 0.3
RBS-R Compulsive Behavior change, median ([1]; DB 100 mg TID): −2, 0, 1
RBS-R Restricted Behavior Mean Change from Baseline ([1]; DB 100 mg TID): 1.3
RBS-R Restricted Behavior Treatment effect versus placebo ([1]; DB 100 mg TID): 2.9
RBS-R Restricted Behavior change, median ([1]; DB 100 mg TID): 0, 1, 1
RBS-R Ritualistic Behavior Mean Change from Baseline ([1]; DB 100 mg TID): 0.1
RBS-R Ritualistic Behavior Treatment effect versus placebo ([1]; DB 100 mg TID): 3.8
RBS-R Ritualistic Behavior change, median ([1]; DB 100 mg TID): −1, 0, 2
RBS-R Sameness Behavior Mean Change from Baseline ([1]; DB 100 mg TID): −0.7
RBS-R Sameness Behavior Treatment effect versus placebo ([1]; DB 100 mg TID): 2.2
RBS-R Sameness Behavior change, median ([1]; DB 100 mg TID): −1, −1, 0
RBS-R Self Injurious Behavior Mean Change from Baseline ([1]; DB 100 mg TID): −2.2
RBS-R Self Injurious Behavior Treatment effect versus placebo ([1]; DB 100 mg TID): −0.1
RBS-R Self Injurious Behavior change, median ([1]; DB 100 mg TID): −2, 0, 0
RBS-R Stereotypic Behavior Mean Change from Baseline ([1]; DB 100 mg TID): −0.6
RBS-R Stereotypic Behavior Treatment effect versus placebo ([1]; DB 100 mg TID): −0.1
RBS-R Stereotypic Behavior change, median ([1]; DB 100 mg TID): 0, 0, 0
RBS-R Total Score Mean Change from Baseline ([1]; DB 100 mg TID): −3.2
RBS-R Total Score Treatment effect versus placebo ([1]; DB 100 mg TID): 7.8
RBS-R Total Score change, median ([1]; DB 100 mg TID): −6, −4, −1
RBS-R Compulsive Behavior Mean Change from Baseline ([1]; DB 200 mg TID): −2.7
RBS-R Compulsive Behavior Treatment effect versus placebo ([1]; DB 200 mg TID): −1.2
RBS-R Compulsive Behavior change, median ([1]; DB 200 mg TID): −3, 0, 0
RBS-R Restricted Behavior Mean Change from Baseline ([1]; DB 200 mg TID): −2.5
RBS-R Restricted Behavior Treatment effect versus placebo ([1]; DB 200 mg TID): −1.0
RBS-R Restricted Behavior change, median ([1]; DB 200 mg TID): −5, −1, 0
RBS-R Ritualistic Behavior Mean Change from Baseline ([1]; DB 200 mg TID): −3.1
RBS-R Ritualistic Behavior Treatment effect versus placebo ([1]; DB 200 mg TID): 0.6
RBS-R Ritualistic Behavior change, median ([1]; DB 200 mg TID): −5, −1, 0
RBS-R Sameness Behavior Mean Change from Baseline ([1]; DB 200 mg TID): 4.2
RBS-R Sameness Behavior Treatment effect versus placebo ([1]; DB 200 mg TID): −1.3
RBS-R Sameness Behavior change, median ([1]; DB 200 mg TID): −9, 0, 0
RBS-R Self Injurious Behavior Mean Change from Baseline ([1]; DB 200 mg TID): −1.7
RBS-R Self Injurious Behavior Treatment effect versus placebo ([1]; DB 200 mg TID): 0.4
RBS-R Self Injurious Behavior change, median ([1]; DB 200 mg TID): −1, 0, 0
RBS-R Stereotypic Behavior Mean Change from Baseline ([1]; DB 200 mg TID): −1.8
RBS-R Stereotypic Behavior Treatment effect versus placebo ([1]; DB 200 mg TID): −1.4
RBS-R Stereotypic Behavior change, median ([1]; DB 200 mg TID): −5, 0, 0
RBS-R Total Score Mean Change from Baseline ([1]; DB 200 mg TID): −16.1
RBS-R Total Score Treatment effect versus placebo ([1]; DB 200 mg TID): −5.1
RBS-R Total Score change, median ([1]; DB 200 mg TID): −28, −2, 0
RBS-R Total Score compared to placebo ([1]; L1-79 200 mg): mean improvements
RBS-R Total Score responders (improvement or stabilization of symptoms) ([1]; L1-79 200 mg, placebo 78%): 91%
changes from baseline EKGs ([2]; any of the patients): No clinically significant changes
patients who developed crystalluria ([2]; patients on L1-79, placebo 30%): 50%
